Measurements from patent publication US20220402950A1, “SUBSTITUTED BENZIMIDAZOLES AS PAD4 INHIBITORS” (BRISTOL-MYERS SQUIBB COMPANY, priority 2018, published 2022).

Target: human PAD4 (hPAD4) (Homo sapiens, UniProt Q9UM07)
Assay: RFMS Human PAD4 Functional Assay
Type: biochemical
Details: hPAD4 RFMS IC50, human PAD4, rapid-fire mass spectrum (RFMS) assay; 5 nM hPAD4, 250 μM BAEE
Procedure, shortened: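 RapidFire ESI-MS quantification, normalised to a modified-citrulline internal standard, after phenyl glyoxal (final 4 mM) derivatisation of the TCA-quenched reaction. The enzyme (10 nM) sat 30 min with compound (up to 50 μM final) before 500 μM BAEE (as added) started a 90 min, 37 °C reaction. Buffer: HEPES pH 7.5, 50 μM calcium, 5 μM TPEN.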

Chain of human PAD4 (hPAD4) (Q9UM07 whole entry): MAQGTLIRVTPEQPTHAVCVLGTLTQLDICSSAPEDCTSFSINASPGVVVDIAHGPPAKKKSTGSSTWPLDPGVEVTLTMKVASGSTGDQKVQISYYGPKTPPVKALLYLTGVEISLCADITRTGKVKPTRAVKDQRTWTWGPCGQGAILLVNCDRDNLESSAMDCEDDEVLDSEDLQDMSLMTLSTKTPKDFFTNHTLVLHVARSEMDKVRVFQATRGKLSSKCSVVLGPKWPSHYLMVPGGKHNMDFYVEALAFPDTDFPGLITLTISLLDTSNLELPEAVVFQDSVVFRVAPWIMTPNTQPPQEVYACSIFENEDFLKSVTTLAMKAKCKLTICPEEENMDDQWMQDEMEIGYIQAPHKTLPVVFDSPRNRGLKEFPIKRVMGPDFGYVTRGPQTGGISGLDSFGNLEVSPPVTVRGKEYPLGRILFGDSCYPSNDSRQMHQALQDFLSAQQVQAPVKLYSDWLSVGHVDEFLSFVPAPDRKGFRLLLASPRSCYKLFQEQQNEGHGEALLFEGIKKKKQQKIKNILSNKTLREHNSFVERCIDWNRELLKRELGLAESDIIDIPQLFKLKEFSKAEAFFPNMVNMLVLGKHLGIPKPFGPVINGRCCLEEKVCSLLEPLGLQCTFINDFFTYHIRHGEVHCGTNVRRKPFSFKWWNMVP

**Q.** Which IC50 does the source give for COc1cc(C(=O)N2C[C@H](N)C[C@@H](F)C2)cc2nc(-c3cc4cccc(C5CC(C(=O)N6CCCC6)C5)c4n3CC3CC3)n(C)c12 (single isomer, unassigned) [Example 116] here?
**A.** 95 nM

**Q.** For COc1cc(C(=O)N2C[C@H]3CC[C@@H]2[C@@H]3N)cc2nc(-c3cc4cccc(C5CCN(C(=O)C6CC6)CC5)c4n3CC3CC3)n(C)c12 [Example 225, (4-(2-(5-((1R,4R,7R)-7-amino-2-azabicyclo[2.2.1]heptane-2-carbonyl)-7-methoxy-1-methyl-1H-benzo[d]imidazol-2-yl)-1-(cyclopropylmethyl)-1H-indol-7-yl)piperidin-1-yl)(cyclopropyl)metha-none], which IC50 is on record?
**A.** 112 nM

**Q.** For COc1cc(C(=O)N2C[C@H]3CC[C@@H]2[C@@H]3N)cc2nc(-c3cc4cccc(-c5ccc(C(N)=O)cc5)c4n3CC3CC3)n(C)c12 [Example 124, 4-(2-(5-((1R,4R,7R)-7-amino-2-azabicyclo[2.2.1]heptane-2-carbonyl)-7-methoxy-1-methyl-1H-benzo[d]imidazol-2-yl)-1-(cyclopropylmethyl)-1H-indol-7-yl)benzamide], which IC50 is on record?
**A.** 25 nM

**Q.** With COc1cc(C(=O)N2C[C@H]3CC[C@@H]2[C@@H]3N)cc2nc(-c3cc4cccc(-c5cnn(CC(C)(C)O)c5)c4n3CC3CC3)n(C)c12 [Example 140, ((1R,4R,7R)-7-amino-2-azabicyclo[2.2.1]heptan-2-yl)(2-(1-(cyclopropylmethyl)-7-(1-(2-hydroxy-2-methylpropyl)-1H-pyrazol-4-yl)-1H-indol-2-yl)-7-methoxy-1-methyl-1H-benzo[d]imidazol-5-yl)methanone] as the compound, how does the IC50 read?
**A.** 106 nM

**Q.** For COc1cc(C(=O)N2C[C@H]3CC[C@@H]2[C@@H]3N)cc2nc(-c3cc4cccc(C5CN(C(=O)Cc6cnccn6)C5)c4n3CC3CC3)n(C)c12 [Example 76, 1-[3-(2-{5-[(1R,4R,7R)-7-amino-2-azabicyclo[2.2.1]heptane-2-carbonyl]-7-methoxy-1-methyl-1H-1,3-benzodiazol-2-yl}-1-(cyclopropylmethyl)-1H-indol-7-yl)azetidin-1-yl]-2-(pyrazin-2-yl)ethan-1-one], which IC50 is on record?
**A.** 19 nM

**Q.** Which IC50 does the source give for COc1cc(C(=O)N2C[C@H]3CC[C@@H]2[C@@H]3N)cc2nc(-c3cc4cccc(C5COC5)c4n3CC3CC3)n(C)c12 [Example 25, (1R,4R,7R)-2-{2-[1-(cyclopropylmethyl)-7-(oxetan-3-yl)-1H-indol-2-yl]-7-methoxy-1-methyl-1H-1,3-benzodiazole-5-carbonyl}-2-azabicyclo[2.2.1]heptan-7-amine] here?
**A.** 63 nM

**Q.** For COc1cc(C(=O)N2C[C@H]3CC[C@@H]2[C@@H]3N)cc2nc(-c3cc4cccc(C5CCCN(C(C)=O)C5)c4n3CC3CC3)n(C)c12 (stereo partly drawn) [Example 38, 1-[3-(2-{5-[(1R,4R,7R)-7-amino-2-azabicyclo[2.2.1]heptane-2-carbonyl]-7-methoxy-1-methyl-1H-1,3-benzodiazol-2-yl}-1-(cyclopropylmethyl)-1H-indol-7-yl)piperidin-1-yl]ethan-1-one], which IC50 is on record?
**A.** 73 nM

**Q.** How did the IC50 turn out when COc1cc(C(=O)N2C[C@H]3CC[C@@H]2[C@@H]3N)cc2nc(-c3cc4cccc(C5CCCN(C(N)=O)C5)c4n3CC3CC3)n(C)c12 (stereo partly drawn) [Example 39, 3-(2-{5-[(1R,4R,7R)-7-amino-2-azabicyclo[2.2.1]heptane-2-carbonyl]-7-methoxy-1-methyl-1H-1,3-benzodiazol-2-yl}-1-(cyclopropylmethyl)-1H-indol-7-yl)piperidine-1-carboxamide] was run?
**A.** 51 nM

**Q.** Which IC50 does the source give for COc1cc(C(=O)N2C[C@H]3CC[C@@H]2[C@@H]3N)cc2nc(-c3cc4cccc(-c5cc(F)c(O)cc5F)c4n3CC3CC3)n(C)c12 [Example 94, 4-(2-{5-[(1R,4R,7R)-7-amino-2-azabicyclo[2.2.1]heptane-2-carbonyl]-7-methoxy-1-methyl-1H-1,3-benzodiazol-2-yl}-1-(cyclopropylmethyl)-1H-indol-7-yl)-2,5-difluorophenol] here?
**A.** 45 nM

**Q.** How did the IC50 turn out when COc1cc(C(=O)N2C[C@H]3CC[C@@H]2[C@@H]3N)cc2nc(-c3cc4cccc(C5CN(C(=O)Cc6ccccn6)C5)c4n3CC3CC3)n(C)c12 [Example 75, 1-[3-(2-{5-[(1R,4R,7R)-7-amino-2-azabicyclo[2.2.1]heptane-2-carbonyl]-7-methoxy-1-methyl-1H-1,3-benzodiazol-2-yl}-1-(cyclopropylmethyl)-1H-indol-7-yl)azetidin-1-yl]-1-(pyridin-2-yl)ethan-1-one] was run?
**A.** 34 nM

**Q.** COc1cc(C(=O)N2C[C@H]3CC[C@@H]2[C@@H]3N)cc2nc(-c3cc4cccc(C5CCN(C(=O)Nc6ccccc6F)CC5)c4n3CC3CC3)n(C)c12 [Example 243, 4-(2-(5-((1R,4R,7R)-7-amino-2-azabicyclo[2.2.1]heptane-2-carbonyl)-7-methoxy-1-methyl-1H-benzo[d]imidazol-2-yl)-1-(cyclopropylmethyl)-1H-indol-7-yl)-N-(2-fluorophenyl)piperidine-1-carboxamide] was tested. Which IC50 did it give?
**A.** 8 nM

**Q.** How did the IC50 turn out when COc1cc(C(=O)N2C[C@H]3CC[C@@H]2[C@@H]3N)cc2nc(-c3cc4cccc(-c5ccc(C(N)=O)nc5)c4n3CC3CC3)n(C)c12 [Example 194, 5-(2-(5-((1R,4R,7R)-7-amino-2-azabicyclo[2.2.1]heptane-2-carbonyl)-7-methoxy-1-methyl-1H-benzo[d]imidazol-2-yl)-1-(cyclopropylmethyl)-1H-indol-7-yl)picolinamide] was run?
**A.** 146 nM

**Q.** COc1cc(C(=O)N2C[C@H]3CC[C@@H]2[C@@H]3N)cc2nc(-c3cc4cccc(C5CN(C(=O)CCc6ccccc6)C5)c4n3CC3CC3)n(C)c12 [Example 79, 1-[3-(2-{5-[(1R,4R,7R)-7-amino-2-azabicyclo[2.2.1]heptane-2-carbonyl]-7-methoxy-1-methyl-1H-1,3-benzodiazol-2-yl}-1-(cyclopropylmethyl)-1H-indol-7-yl)azetidin-1-yl]-3-phenylpropan-1-one] was tested. Which IC50 did it give?
**A.** 12 nM

**Q.** With COc1cc(C(=O)N2C[C@H]3CC[C@@H]2[C@@H]3N)cc2nc(-c3cc4cccc(-c5ccc(O)nc5)c4n3CC3CC3)n(C)c12 [Example 197, ((1R,4R,7R)-7-amino-2-azabicyclo[2.2.1]heptan-2-yl)(2-(1-(cyclopropylmethyl)-7-(6-hydroxypyridin-3-yl)-1H-indol-2-yl)-7-methoxy-1-methyl-1H-benzo[d]imidazol-5-yl)methanone] as the compound, how does the IC50 read?
**A.** 120 nM

**Q.** For COc1cc(C(=O)N2C[C@H]3CC[C@@H]2[C@@H]3N)cc2nc(-c3cc4cccc(C5CC(C(=O)N6CCCC6)C5)c4n3CC3CC3)n(C)c12 (single isomer, unassigned) [Example 50], which IC50 is on record?
**A.** 81 nM

**Q.** With COc1cc(C(=O)N2C[C@H]3CC[C@@H]2[C@@H]3N)cc2nc(-c3cc4cccc(CCCCCCN)c4n3CC3CC3)n(C)c12 [Example 17, (1R,4R,7R)-2-{2-[7-(6-aminohexyl)-1-(cyclopropylmethyl)-1H-indol-2-yl]-7-methoxy-1-methyl-1H-1,3-benzodiazole-5-carbonyl}-2-azabicyclo[2.2.1]heptan-7-amine] as the compound, how does the IC50 read?
**A.** 56 nM

**Q.** How did the IC50 turn out when COc1cc(C(=O)N2C[C@H]3CC[C@@H]2[C@@H]3N)cc2nc(-c3cc4cccc(C5CN(C(=O)Nc6ccccc6)C5)c4n3CC3CC3)n(C)c12 [Example 70, 3-(2-{5-[(1R,4R,7R)-7-amino-2-azabicyclo[2.2.1]heptane-2-carbonyl]-7-methoxy-1-methyl-1H-1,3-benzodiazol-2-yl}-1-(cyclopropylmethyl)-1H-indol-7-yl)-N-phenylazetidine-1-carboxamide] was run?
**A.** 15 nM

Same assay, conditions: human PAD4, rapid-fire mass spectrum (RFMS) assay; 5 nM hPAD4, 250 μM BAEE; read-out: hPAD4 RFMS IC50

**Q.** Which IC50 does the source give for COc1cc(C(=O)N2C[C@H]3CC[C@@H]2[C@@H]3N)cc2nc(-c3cc4cccc(CCCO)c4n3CC3CC3)n(C)c12 [Example 2, ((1R,4R,7R)-7-amino-2-azabicyclo[2.2.1]heptan-2-yl)(2-(1-(cyclopropylmethyl)-7-(3-hydroxypropyl)-1H-indol-2-yl)-7-methoxy-1-methyl-1H-benzo[d]imidazol-5-yl)methanone] here?
**A.** 32 nM

**Q.** How did the IC50 turn out when COc1cc(C(=O)N2C[C@H]3CC[C@@H]2[C@@H]3N)cc2nc(-c3cc4cccc(C5CCN(C(=O)N(C)C)CC5)c4n3CC3CC3)n(C)c12 [Example 188, 4-(2-(5-((1R,4R,7R)-7-amino-2-azabicyclo[2.2.1]heptane-2-carbonyl)-7-methoxy-1-methyl-1H-benzo[d]imidazol-2-yl)-1-(cyclopropylmethyl)-1H-indol-7-yl)-N,N-dimethylpiperidine-1-carboxamide] was run?
**A.** 27 nM

**Q.** COc1cc(C(=O)N2C[C@H]3CC[C@@H]2[C@@H]3N)cc2nc(-c3cc4cccc(C5CC6(C5)CN(C(C)=O)C6)c4n3CC3CC3)n(C)c12 [Example 62, 1-[6-(2-{5-[(1R,4R,7R)-7-amino-2-azabicyclo[2.2.1]heptane-2-carbonyl]-7-methoxy-1-methyl-1H-1,3-benzodiazol-2-yl}-1-(cyclopropylmethyl)-1H-indol-7-yl)-2-azaspiro[3.3]heptan-2-yl]ethan-1-one] was tested. Which IC50 did it give?
**A.** 110 nM

**Q.** With COc1cc(C(=O)N2C[C@H]3CC[C@@H]2[C@@H]3N)cc2nc(-c3cc4cccc(C5CN(C(=O)CN)C5)c4n3CC3CC3)n(C)c12 [Example 65, 2-amino-1-[3-(2-{5-[(1R,4R,7R)-7-amino-2-azabicyclo[2.2.1]heptane-2-carbonyl]-7-methoxy-1-methyl-1H-1,3-benzodiazol-2-yl}-1-(cyclopropylmethyl)-1H-indol-7-yl)azetidin-1-yl]ethan-1-one] as the compound, how does the IC50 read?
**A.** 24 nM

**Q.** For COc1cc(C(=O)N2C[C@H]3CC[C@@H]2[C@@H]3N)cc2nc(-c3cc4cccc(-n5cc([C@H]6CC[C@H](N)CC6)nn5)c4n3CC3CC3)n(C)c12 [Example 109, (1R,4R,7R)-2-{2-[1-(cyclopropylmethyl)-7-{4-[(1r,4r)-4-aminocyclohexyl]-1H-1,2,3-triazol-1-yl}-1H-indol-2-yl]-7-methoxy-1-methyl-1H-1,3-benzodiazole-5-carbonyl}-2-azabicyclo[2.2.1]heptan-7-amine], which IC50 is on record?
**A.** 175 nM
